From patent publication US12377084B2, “ERAP1 modulators” (GREY WOLF THERAPEUTICS LIMITED, priority 2019, dated 2025) come the findings set out here.

For this experiment, the target named is T1, Purified ERAP1(37-941)-10 His (ERAP1) (Homo sapiens, UniProt Q9NZ08).
T1 construct: Purified ERAP1(37-941)-10 His (ERAP1); 10xHis (C)
The experiment can be described thus: ERAP1 mediated hydrolysis of an amide substrate in a biochemical system (10 mer inhibition assay). The following applies: 10-mer substrate, incubated at 23° C. for 1 h; excitation 279 nm, emission 355 nm; read-out: IC50 vs Decapeptide WRVYEKC(Dnp)ALK-acid (where Dnp is Dinitrophenyl maleimide) (10-mer). An excerpt: This peptide has minimal fluorescence as the N-terminal tryptophan residue's fluorescence is quenched by the dinitrophenol (DNP) residue within the peptide. However, as ERAP1 hydrolyses the N-terminal amide bond and tryptophan is released this internal quenching is lost and the reaction is monitored by the increase in tryptophan fluorescence over the course of the assay. For the purposes of this application this assay is referred to as the “10 mer inhibition assay” and compound potencies are calculated and expressed as IC50 as would be familiar to a person skilled in the art.
Biological Assay 1: ERAP1 Mediated Hydrolysis of an Amide Substrate Measured in a Biochemical System
1× Assay buffer (AB): 25 mM Bis-tris propane, 0.05% w/v
Hydroxypropylmethylcellulose pH 7.75 made with Optima grade water
Decapeptide WRVYEKC(Dnp)ALK-acid (where Dnp is Dinitrophenyl maleimide) (10-mer)
12.5 μL ERAP1 enzyme in 1×AB was combined with 250 nL test compound in DMSO. 12.5 μL of either 240 μM L-AMC in 1×AB or 100 μM 10-mer in 1×AB was added to the reaction and incubated at 23° C. for 1 h. For detection, plates were read at excitation 365 nm and emission 442 nm (L-AMC) or excitation 279 nm and emission 355 nm (10-mer). Compound IC50 was determined using a 4-parameter equation.

Structures are written as SMILES. Structures can show the parent of a compound that is named as a salt.

T1 sequence (Q9NZ08 37-941): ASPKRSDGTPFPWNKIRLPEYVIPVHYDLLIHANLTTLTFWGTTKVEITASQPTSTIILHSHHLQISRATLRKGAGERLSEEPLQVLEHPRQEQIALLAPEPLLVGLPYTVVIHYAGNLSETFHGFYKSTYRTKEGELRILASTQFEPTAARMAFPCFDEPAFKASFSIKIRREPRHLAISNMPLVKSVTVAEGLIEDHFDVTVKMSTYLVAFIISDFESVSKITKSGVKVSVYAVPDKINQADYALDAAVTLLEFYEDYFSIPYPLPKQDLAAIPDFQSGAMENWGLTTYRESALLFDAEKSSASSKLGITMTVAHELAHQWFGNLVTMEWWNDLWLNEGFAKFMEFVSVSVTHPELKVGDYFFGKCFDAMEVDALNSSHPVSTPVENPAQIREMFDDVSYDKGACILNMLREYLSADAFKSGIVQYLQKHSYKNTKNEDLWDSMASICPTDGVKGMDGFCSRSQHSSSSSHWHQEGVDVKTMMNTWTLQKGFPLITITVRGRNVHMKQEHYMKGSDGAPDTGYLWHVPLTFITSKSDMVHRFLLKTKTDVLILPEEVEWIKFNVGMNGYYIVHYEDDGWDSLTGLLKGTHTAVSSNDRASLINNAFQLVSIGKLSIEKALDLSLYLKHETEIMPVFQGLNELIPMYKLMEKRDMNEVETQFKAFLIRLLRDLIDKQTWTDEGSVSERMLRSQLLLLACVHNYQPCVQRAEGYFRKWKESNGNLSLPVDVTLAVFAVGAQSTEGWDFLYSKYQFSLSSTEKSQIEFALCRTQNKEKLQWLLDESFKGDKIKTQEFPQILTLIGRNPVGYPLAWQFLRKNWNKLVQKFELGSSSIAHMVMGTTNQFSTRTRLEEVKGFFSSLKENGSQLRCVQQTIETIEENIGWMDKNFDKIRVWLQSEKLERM

The IC50 is the concentration needed to halve the response being measured. As to `O=C(O)c1ccc(C2CC2)c(S(=O)(=O)Nc2cc(C(F)(F)F)ccc2C2CCCCN2)c1` (single isomer, unassigned; enantiomer 1) [Example 29, 4-cyclopropyl-3-(N-(2-(piperidin-2-yl)-5-(trifluoromethyl)phenyl)sulfamoyl)benzoic Acid Enantiomer 1], the IC50 was less than 100 nM.
For `O=C(O)c1ccc(C2CC2)c(S(=O)(=O)Nc2cc(C(F)(F)F)ccc2C2CCCCN2)c1` (single isomer, unassigned; enantiomer 2) [Example 30, 4-cyclopropyl-3-(N-(2-(piperidin-2-yl)-5-(trifluoromethyl)phenyl)sulfamoyl)benzoic Acid Enantiomer 2] the value was less than 100 nM; for `COc1ccc(C(=O)O)cc1S(=O)(=O)Nc1cc(C(F)(F)F)ccc1C1CCCN(C)C1` (stereo not shown) [Example 1, 4-methoxy-3-(N-(2-(1-methylpiperidin-3-yl)-5-(trifluoromethyl)phenyl)sulfamoyl)benzoic Acid], greater than 500 nM; for `COc1ccc(C(=O)O)cc1S(=O)(=O)Nc1cc(C(F)(F)F)ccc1C1CCCNC1` (stereo not shown) [Example 2, 4-methoxy-3-(N-(2-(piperidin-3-yl)-5-(trifluoromethyl)phenyl)sulfamoyl)benzoic Acid Hydrochloride], 100 to 500 nM.
For `CCc1ccc(C(=O)O)cc1S(=O)(=O)Nc1cc(C(F)(F)F)ccc1C1CCCNC1` (stereo not shown) [Example 3, 4-ethyl-3-(N-(2-(piperidin-3-yl)-5-(trifluoromethyl)phenyl)sulfamoyl)benzoic Acid Hydrochloride] the value was less than 100 nM; for `CCc1ccc(C(=O)O)cc1S(=O)(=O)Nc1cc(-n2cnnn2)ccc1C1CCCCC1` [Example 4, 3-(N-(2-cyclohexyl-5-(tetrazol-1-yl)phenyl)sulfamoyl)-4-ethylbenzoic Acid], less than 100 nM; for `CCc1ccc(C(=O)O)cc1S(=O)(=O)Nc1cc(C(F)(F)F)ccc1C1CCCN1` (stereo not shown) [Example 5, 4-ethyl-3-(N-(2-(pyrrolidin-2-yl)-5-(trifluoromethyl)phenyl)sulfamoyl)benzoic Acid], 100 to 500 nM.
For `CCc1ccc(C(=O)O)cc1S(=O)(=O)Nc1cc(C(F)(F)F)ccc1C1CCCN1C` (stereo not shown) [Example 6, 4-ethyl-3-(N-(2-(1-methylpyrrolidin-2-yl)-5-(trifluoromethyl)phenyl)sulfamoyl)benzoic] the value was 100 to 500 nM; for `CCc1ccc(C(=O)O)cc1S(=O)(=O)Nc1cc(C(F)(F)F)ccc1C1CCNC1` (stereo not shown) [Example 7, 4-ethyl-3-(N-(2-(pyrrolidin-3-yl)-5-(trifluoromethyl)phenyl)sulfamoyl)benzoic Acid], less than 100 nM.
Take `CCc1ccc(C(=O)O)cc1S(=O)(=O)Nc1cc(C(F)(F)F)ccc1C1CCCCN1` (stereo not shown) [Example 8, 4-ethyl-3-(N-(2-(piperidin-2-yl)-5-(trifluoromethyl)phenyl)sulfamoyl)benzoic Acid]: the IC50 was less than 100 nM.
For the molecule `CCc1ccc(C(=O)O)cc1S(=O)(=O)Nc1cc(C(F)(F)F)ccc1C1CCCCC1` [Example 9, 3-(N-(2-cyclohexyl-5-(trifluoromethyl)phenyl)sulfamoyl)-4-ethylbenzoic Acid], the IC50 was less than 100 nM.
In the case of `CCc1ccc(C(=O)O)cc1S(=O)(=O)Nc1cc(C(F)(F)F)ccc1C1CCCCN1C` (stereo not shown) [Example 10, 4-ethyl-3-(N-(2-(1-methylpiperidin-2-yl)-5-(trifluoromethyl)phenyl)sulfamoyl)benzoic Acid], the IC50 is less than 100 nM.
For `CCc1ccc(C(=O)O)cc1S(=O)(=O)Nc1cc(S(C)(=O)=O)ccc1C1CCCCC1` [Example 11, 3-(N-(2-cyclohexyl-5-(methylsulfonyl)phenyl)sulfamoyl)-4-ethylbenzoic Acid] the value was less than 100 nM; for `O=C(O)c1ccc(C2CC2)c(S(=O)(=O)Nc2cc(C(F)(F)F)ccc2C2CCCNC2)c1` (stereo not shown) [Example 12, 4-cyclopropyl-3-(N-(2-(piperidin-3-yl)-5-(trifluoromethyl)phenyl)sulfamoyl)benzoic Acid], less than 100 nM; for `CCc1ccc(C(=O)O)cc1S(=O)(=O)Nc1cc(C#N)ccc1C1CCCCC1` [Example 13, 3-(N-(5-cyano-2-cyclohexylphenyl)sulfamoyl)-4-ethylbenzoic Acid], less than 100 nM.
For `CCc1ccc(C(=O)O)cc1S(=O)(=O)Nc1cc(S(C)(=O)=O)ccc1C1CCCNC1` (stereo not shown) [Example 14, 4-ethyl-3-(N-(5-(methylsulfonyl)-2-(piperidin-3-yl)phenyl)sulfamoyl)benzoic Acid] the value was less than 100 nM; for `CCc1ccc(C(=O)O)cc1S(=O)(=O)Nc1cc(S(C)(=O)=O)ccc1C1CCCCN1` (stereo not shown) [Example 15, 4-ethyl-3-(N-(5-(methylsulfonyl)-2-(piperidin-2-yl)phenyl)sulfamoyl)benzoic Acid], less than 100 nM.
For `O=C(O)c1ccc(C2CC2)c(S(=O)(=O)Nc2cc(C(F)(F)F)ccc2C2CCCCN2)c1` (stereo not shown) [Example 16, 4-cyclopropyl-3-(N-(2-(piperidin-2-yl)-5-(trifluoromethyl)phenyl)sulfamoyl)benzoic Acid] the value was less than 100 nM; for `CS(=O)(=O)c1ccc(C2CCCCC2)c(NS(=O)(=O)c2cc(C(=O)O)ccc2C2CC2)c1` [Example 17, 3-(N-(2-cyclohexyl-5-(methylsulfonyl)phenyl)sulfamoyl)-4-cyclopropylbenzoic Acid], less than 100 nM; for `N#Cc1ccc(C2CCCCC2)c(NS(=O)(=O)c2cc(C(=O)O)ccc2C2CC2)c1` [Example 18, 3-(N-(5-cyano-2-cyclohexylphenyl)sulfamoyl)-4-cyclopropylbenzoic Acid], less than 100 nM.
Turning to `N#Cc1ccc(C2CCCCN2)c(NS(=O)(=O)c2cc(C(=O)O)ccc2C2CC2)c1` (stereo not shown) [Example 19, 3-(N-(5-cyano-2-(piperidin-2-yl)phenyl)sulfamoyl)-4-cyclopropylbenzoic Acid], the IC50 is less than 100 nM.
For `CS(=O)(=O)c1ccc(C2CCCCN2)c(NS(=O)(=O)c2cc(C(=O)O)ccc2C2CC2)c1` (stereo not shown) [Example 20, 4-cyclopropyl-3-(N-(5-(methylsulfonyl)-2-(piperidin-2-yl)phenyl)sulfamoyl)benzoic Acid] the value was less than 100 nM; for `N#Cc1cc(NS(=O)(=O)c2cc(C(=O)O)ccc2C2CC2)c(C2CCCCN2)cc1F` (stereo not shown) [Example 21, 3-(N-(5-cyano-4-fluoro-2-(piperidin-2-yl)phenyl)sulfamoyl)-4-cyclopropylbenzoic Acid], less than 100 nM; for `N#Cc1cc(NS(=O)(=O)c2cc(C(=O)O)ccc2C2CC2)c(C2CCCCN2)cc1Cl` (stereo not shown) [Example 22, 3-(N-(4-chloro-5-cyano-2-(piperidin-2-yl)phenyl)sulfamoyl)-4-cyclopropylbenzoic Acid], less than 100 nM.
For `O=C(O)c1ccc(C2CC2)c(S(=O)(=O)Nc2cc(-n3cnnn3)ccc2C2CCCCN2)c1` (stereo not shown) [Example 23, 4-cyclopropyl-3-(N-(2-(piperidin-2-yl)-5-(tetrazol-1-yl)phenyl)sulfamoyl)benzoic Acid] the value was less than 100 nM.
For `O=C(O)c1ccc(C2CC2)c(S(=O)(=O)Nc2cc(C(F)(F)F)c(F)cc2C2CCCCN2)c1` (stereo not shown) [Example 24, 4-cyclopropyl-3-(N-(4-fluoro-2-(piperidin-2-yl)-5-(trifluoromethyl)phenyl)sulfamoyl)benzoic Acid] the value was less than 100 nM; for `CS(=O)(=O)c1cc(NS(=O)(=O)c2cc(C(=O)O)ccc2C2CC2)c(C2CCCCN2)cc1F` (stereo not shown) [Example 25, 4-cyclopropyl-3-(N-(4-fluoro-5-(methylsulfonyl)-2-(piperidin-2-yl)phenyl)sulfamoyl)benzoic Acid Hydrochloride], less than 100 nM.
For `O=C(O)c1ccc(C2CC2)c(S(=O)(=O)Nc2cc(C(F)(F)F)c(Cl)cc2C2CCCCN2)c1` (stereo not shown) [Example 26, 3-(N-(4-chloro-2-(piperidin-2-yl)-5-(trifluoromethyl)phenyl)sulfamoyl)-4-cyclopropylbenzoic Acid], the 50% inhibitory concentration (IC50) was less than 100 nM.
Regarding `CS(=O)(=O)c1cc(NS(=O)(=O)c2cc(C(=O)O)ccc2C2CC2)c(C2CCCCN2)cc1Cl` (stereo not shown) [Example 27, 3-(N-(4-chloro-5-(methylsulfonyl)-2-(piperidin-2-yl)phenyl)sulfamoyl)-4-cyclopropylbenzoic Acid Hydrochloride], the IC50 was less than 100 nM.
For `O=C(O)c1ccc(C2CC2)c(S(=O)(=O)Nc2cc(-c3ccns3)ccc2C2CCCCN2)c1` (stereo not shown) [Example 28, 4-cyclopropyl-3-(N-(5-(isothiazol-5-yl)-2-(piperidin-2-yl)phenyl)sulfamoyl)benzoic Acid] the value was less than 100 nM; for `O=C(O)c1cc(F)c(C2CC2)c(S(=O)(=O)Nc2cc(C(F)(F)F)ccc2C2CCCCN2)c1` (stereo not shown) [Example 31, 4-cyclopropyl-3-fluoro-5-(N-(2-(piperidin-2-yl)-5-(trifluoromethyl)phenyl)sulfamoyl)benzoic Acid], less than 100 nM.
